Where “and” joins values, the source holds several entries; their conditions need not be identical. Equal entries are not always repeated. Marks after values point to notes of the source that are not given here.
Assays:
[1] = clinical; details: human, in vivo
Procedure: Pharmacokinetic analyses were based on data from 20 subjects in the 25 mg Q12H (n=8), 75 mg Q12H (n=8), and 150 mg Q12H (n=4) groups.

[2] = system: dopamine receptor
[3] = system: patients with ALS; experiment: Part 2: 4-week single-blind placebo washout period (withdrawal effects)
[4] = 50 mg during Part 1, placebo washout period
[5] = 150 mg during Part 1, placebo washout period
[6] = 300 mg during Part 1, placebo washout period

## CCCN[C@@H]1CCc2nc(N)sc2C1 [dexpramipexole, (6R)-2-amino-4,5,6,7-tetrahydro-6-(propylamino)benzothiazole]
[1]
  dose linearity of pharmacokinetics: linear
[1]; 25 mg
  Tmax: 1.77 h
[1]; 75 mg
  Tmax: 1.82 h
[1]; 150 mg
  Tmax: 1.7 h
  half-life: 6.63 to 8.73 h
[2]
  functional affinity difference between pramipexole and dexpramipexole: 10,000-20,000 fold
[3]; 50 mg during Part 1, Baseline (Part 1: Week 12)
  Neutrophil Count, Mean (SD): 4.539 (1.3112) ×10^3/μL
[3]; 50 mg during Part 1, Part 2: Week 4 (end of placebo washout)
  Neutrophil Count, Mean (SD): 4.470 (1.3436) ×10^3/μL
[3]; [4]
  ALS-related TEAE: Disease progression: 1 (5%) N (%)
  ALS-related TEAE: Dyspnoea: 1 (5%) N (%)
  ALS-related TEAE: Fall: 2 (9%) N (%)
  ALS-related TEAE: General Disorders and Administration Site Conditions: 2 (9%) N (%)
  ALS-related TEAE: Injury, Poisoning and Procedural Complications: 2 (9%) N (%)
  ALS-related TEAE: Muscle spasms: 1 (5%) N (%)
  ALS-related TEAE: Muscular weakness: 4 (18%) N (%)
  ALS-related TEAE: Musculoskeletal and Connective Tissue Disorders: 4 (18%) N (%)
  ALS-related TEAE: Respiratory, Thoracic and Mediastinal Disorders: 1 (5%) N (%)
  Neutrophil Count, Mean Δ (SD) from baseline to Week 4: −0.022 (0.7157) ×10^3/μL
  Number of TEAEs: 18
  Number of serious TEAEs: 2
  Number of severe TEAEs: 2
  Number of treatment-related TEAEs: 2
  Subjects with a TEAE with action taken of study drug discontinued: 0 N (%)
  Subjects with ≧1 ALS-related TEAE: 7 (32%) N (%)
  TEAE: Anxiety: 1 (5%) N (%)
  TEAE: Back pain: 2 (9%) N (%)
  TEAE: Constipation: 0 N (%)
  TEAE: Cough: 0 N (%)
  TEAE: Diarrhoea: 0 N (%)
  TEAE: Dyspnoea: 1 (5%) N (%)
  TEAE: Fall: 2 (9%) N (%)
  TEAE: Gastrointestinal Disorders: 0 N (%)
  TEAE: General Disorders and Administration Site Conditions: 2 (9%) N (%)
  TEAE: Injury, Poisoning and Procedural Complications: 2 (9%) N (%)
  TEAE: Muscle spasms: 1 (5%) N (%)
  TEAE: Muscular weakness: 4 (18%) N (%)
  TEAE: Musculoskeletal and Connective Tissue Disorders: 6 (27%) N (%)
  TEAE: Nausea: 0 N (%)
  TEAE: Post lumbar puncture syndrome: 0 N (%)
  TEAE: Psychiatric Disorders: 1 (5%) N (%)
  TEAE: Pyrexia: 1 (5%) N (%)
  TEAE: Respiratory, Thoracic and Mediastinal Disorders: 1 (5%) N (%)
  mean change from baseline in ALSFRS-R score over 4 weeks: −0.7
  mean change from baseline in VC over 4 weeks: −2.9%
  serious TEAE: Disease progression: 1 (5%)^a N (%)
  serious TEAE: Dyspnoea: 1 (5%)^a N (%)
  serious TEAE: General Disorders and Administration Site Conditions: 1 (5%) N (%)
  serious TEAE: Renal and Urinary Disorders: 0 N (%)
  serious TEAE: Respiratory, Thoracic and Mediastinal Disorders: 1 (5%) N (%)
  serious TEAE: Urethral obstruction: 0 N (%)
  serious TEAE: Urinary retention: 0 N (%)
  ≧1 TEAE: 9 (41%) N (%)
  ≧1 TEAE with an outcome of death: 2 N (%) and 2 (9%) N (%)
  ≧1 serious TEAE (including death): 2 (9%) N (%)
  ≧1 serious treatment-related TEAE: 0 N (%)
  ≧1 severe TEAE: 2 (9%) N (%)
  ≧1 treatment-related TEAE: 2 (9%) N (%)
[3]; 150 mg during Part 1, Baseline (Part 1: Week 12)
  Neutrophil Count, Mean (SD): 3.931 (1.4130) ×10^3/μL
[3]; 150 mg during Part 1, Part 2: Week 4 (end of placebo washout)
  Neutrophil Count, Mean (SD): 4.753 (1.5327) ×10^3/μL
[3]; [5]
  ALS-related TEAE: Disease progression: 0 N (%)
  ALS-related TEAE: Dyspnoea: 0 N (%)
  ALS-related TEAE: Fall: 3 (12%) N (%)
  ALS-related TEAE: General Disorders and Administration Site Conditions: 0 N (%)
  ALS-related TEAE: Injury, Poisoning and Procedural Complications: 3 (12%) N (%)
  ALS-related TEAE: Muscle spasms: 1 (4%) N (%)
  ALS-related TEAE: Muscular weakness: 1 (4%) N (%)
  ALS-related TEAE: Musculoskeletal and Connective Tissue Disorders: 2 (8%) N (%)
  ALS-related TEAE: Respiratory, Thoracic and Mediastinal Disorders: 1 (4%) N (%)
  Neutrophil Count, Mean Δ (SD) from baseline to Week 4: 0.841 (1.1854) ×10^3/μL
  Number of TEAEs: 29
  Number of serious TEAEs: 0
  Number of severe TEAEs: 0
  Number of treatment-related TEAEs: 5
  Subjects with a TEAE with action taken of study drug discontinued: 0 N (%)
  Subjects with ≧1 ALS-related TEAE: 7 (28%) N (%)
  TEAE: Anxiety: 0 N (%)
  TEAE: Back pain: 0 N (%)
  TEAE: Constipation: 1 (4%) N (%)
  TEAE: Cough: 2 (8%) N (%)
  TEAE: Diarrhoea: 2 (8%) N (%)
  TEAE: Dyspnoea: 0 N (%)
  TEAE: Fall: 3 (12%) N (%)
  TEAE: Gastrointestinal Disorders: 5 (20%) N (%)
  TEAE: General Disorders and Administration Site Conditions: 1 (4%) N (%)
  TEAE: Injury, Poisoning and Procedural Complications: 4 (16%) N (%)
  TEAE: Muscle spasms: 1 (4%) N (%)
  TEAE: Muscular weakness: 1 (4%) N (%)
  TEAE: Musculoskeletal and Connective Tissue Disorders: 3 (12%) N (%)
  TEAE: Nausea: 1 (4%) N (%)
  TEAE: Post lumbar puncture syndrome: 1 (4%) N (%)
  TEAE: Psychiatric Disorders: 2 (8%) N (%)
  TEAE: Pyrexia: 0 N (%)
  TEAE: Respiratory, Thoracic and Mediastinal Disorders: 2 (8%) N (%)
  mean change from baseline in ALSFRS-R score over 4 weeks: −1.0
  mean change from baseline in VC over 4 weeks: −1.7%
  serious TEAE: Disease progression: 0 N (%)
  serious TEAE: Dyspnoea: 0 N (%)
  serious TEAE: General Disorders and Administration Site Conditions: 0 N (%)
  serious TEAE: Renal and Urinary Disorders: 0 N (%)
  serious TEAE: Respiratory, Thoracic and Mediastinal Disorders: 0 N (%)
  serious TEAE: Urethral obstruction: 0 N (%)
  serious TEAE: Urinary retention: 0 N (%)
  ≧1 TEAE: 13 (52%) N (%)
  ≧1 TEAE with an outcome of death: 0 N (%)
  ≧1 serious TEAE (including death): 0 N (%)
  ≧1 serious treatment-related TEAE: 0 N (%)
  ≧1 severe TEAE: 0 N (%)
  ≧1 treatment-related TEAE: 2 (8%) N (%)
[3]; 300 mg during Part 1, Baseline (Part 1: Week 12)
  Neutrophil Count, Mean (SD): 3.905 (1.9377) ×10^3/μL
[3]; 300 mg during Part 1, Part 2: Week 4 (end of placebo washout)
  Neutrophil Count, Mean (SD): 4.112 (1.1979) ×10^3/μL
[3]; [6]
  ALS-related TEAE: Disease progression: 0 N (%)
  ALS-related TEAE: Dyspnoea: 1 (4%) N (%)
  ALS-related TEAE: Fall: 2 (8%) N (%)
  ALS-related TEAE: General Disorders and Administration Site Conditions: 0 N (%)
  ALS-related TEAE: Injury, Poisoning and Procedural Complications: 2 (8%) N (%)
  ALS-related TEAE: Muscle spasms: 1 (4%) N (%)
  ALS-related TEAE: Muscular weakness: 0 N (%)
  ALS-related TEAE: Musculoskeletal and Connective Tissue Disorders: 1 (4%) N (%)
  ALS-related TEAE: Respiratory, Thoracic and Mediastinal Disorders: 1 (4%) N (%)
  Neutrophil Count, Mean Δ (SD) from baseline to Week 4: 0.130 (1.3502) ×10^3/μL
  Number of TEAEs: 46
  Number of serious TEAEs: 1
  Number of severe TEAEs: 1
  Number of treatment-related TEAEs: 3
  Subjects with a TEAE with action taken of study drug discontinued: 1 (4%)^b N (%)
  Subjects with ≧1 ALS-related TEAE: 5 (21%) N (%)
  TEAE: Anxiety: 0 N (%)
  TEAE: Back pain: 1 (4%) N (%)
  TEAE: Constipation: 3 (13%) N (%)
  TEAE: Cough: 0 N (%)
  TEAE: Diarrhoea: 1 (4%) N (%)
  TEAE: Dyspnoea: 1 (4%) N (%)
  TEAE: Fall: 3 (13%) N (%)
  TEAE: Gastrointestinal Disorders: 3 (13%) N (%)
  TEAE: General Disorders and Administration Site Conditions: 3 (13%) N (%)
  TEAE: Injury, Poisoning and Procedural Complications: 6 (25%) N (%)
  TEAE: Muscle spasms: 1 (4%) N (%)
  TEAE: Muscular weakness: 0 N (%)
  TEAE: Musculoskeletal and Connective Tissue Disorders: 2 (8%) N (%)
  TEAE: Nausea: 2 (8%) N (%)
  TEAE: Post lumbar puncture syndrome: 1 (4%) N (%)
  TEAE: Psychiatric Disorders: 0 N (%)
  TEAE: Pyrexia: 2 (8%) N (%)
  TEAE: Respiratory, Thoracic and Mediastinal Disorders: 1 (4%) N (%)
  mean change from baseline in ALSFRS-R score over 4 weeks: −1.5
  mean change from baseline in VC over 4 weeks: −2.7%
  serious TEAE: Disease progression: 0 N (%)
  serious TEAE: Dyspnoea: 1 (4%) N (%)
  serious TEAE: General Disorders and Administration Site Conditions: 0 N (%)
  serious TEAE: Renal and Urinary Disorders: 0 N (%)
  serious TEAE: Respiratory, Thoracic and Mediastinal Disorders: 1 (4%) N (%)
  serious TEAE: Urethral obstruction: 0 N (%)
  serious TEAE: Urinary retention: 0 N (%)
  subjects who required a tracheostomy: 1 subject
  ≧1 TEAE: 11 (46%) N (%)
  ≧1 TEAE with an outcome of death: 0 N (%)
  ≧1 serious TEAE (including death): 1 (4%) N (%)
  ≧1 serious treatment-related TEAE: 0 N (%)
  ≧1 severe TEAE: 1 (4%) N (%)
  ≧1 treatment-related TEAE: 2 (8%) N (%)

From patent publication US20130245081A1, “Compositions and Methods for Treating Amyotrophic Lateral Sclerosis” (priority 2009, published 2013)
